Calls of active or inactive are those of the source. No cut-off for these calls is given here.
Key:
[1] = Toxicity in zebrafish embryo assessed as damage effect in liver development at 1 uM with replacement of new growth solution daily by fluorescence microscopy relative to control; assay type: tissue-based, Danio rerio; conditions: in vivo
[2] = Cytotoxicity against human BEAS-2B cells assessed as inhibition of cell viability incubated for 48 hrs by MTT assay; assay type: toxicity, cell-based
NCI-H460 [3] = experiment: Cytotoxicity against human NCI-H460 cells assessed as inhibition of cell viability incubated for 48 hrs by MTT assay; assay type: functional, cell-based; conditions: NCI-H460, 48 h
Danio rerio [4] = species on record: Danio rerio; experiment: Induction of ROS production in zebrafish at 2 uM measured after 48 hrs by fluorescence microscopy; assay type: functional, organism-based
[5] = Toxicity in zebrafish embryo assessed as damage effect in liver function at 1 uM with replacement of new growth solution daily by fluorescence microscopy relative to control; set-up: species or system Danio rerio; conditions: in vivo
[6] = Renal toxicity in zebrafish assessed as increase in TNF-alpha expression at 2 uM treated for 48 hrs by RT-qPCR analysis; set-up: species or system Danio rerio; conditions: in vivo
NCI-H1975 [7] = experiment: Inhibition of cell proliferation in human NCI-H1975 cells xenografted in zebrafish at 1 to 2 uM measured after 48 hrs by confocal microscopy; assay type: functional, cell-based; conditions: dose 1-2 µM
[8] = Toxicity in zebrafish embryo assessed as damage effect in liver development at 2 uM with replacement of new growth solution daily by fluorescence microscopy relative to control; assay type: tissue-based, Danio rerio; conditions: in vivo
NCI-H1975 [9] = experiment: Induction of early apoptosis in human NCI-H1975 cells at 50 to 400 nM incubated for 24 hrs by Annexin V-FITC/PI staining based flow cytometry; assay type: functional, cell-based; conditions: dose 50-400 nM
BEAS-2B [10] = experiment: Induction of apoptosis in human BEAS-2B cells at 50 to 400 nM incubated for 24 hrs by Annexin V-FITC/PI staining based flow cytometry; assay type: toxicity, cell-based; conditions: 0.4 µM, dose 50-400 nM
[11] = Toxicity in zebrafish embryo assessed as liver development at 2 uM with replacement of new growth solution daily by fluorescence microscopy (reference value: 100.00 +/- 8.64 %); assay type: tissue-based, Danio rerio; conditions: in vivo
[12] = Renal toxicity in zebrafish assessed as increase in Kim1 expression at 2 uM treated for 48 hrs by RT-qPCR analysis; set-up: species or system Danio rerio; conditions: in vivo
NCI-H1975 [13] = experiment: Inhibition of cell viability in human NCI-H1975 cells assessed as effect on cell index at 30 nM by real-time cell analysis; assay type: functional, cell-based
[14] = Developmental toxicity in zebrafish AB zygotes assessed as decrease in body length treated at 6 hrs post-fertilization measured at 24 to 72 hrs post-fertilization; set-up: species or system Danio rerio; conditions: in vivo, dose lower 0.25 µM, time lower 18 hrs, dose upper 4 µM, time upper 66 hrs
[15] = Renal toxicity in fluorescent transgenic zebrafish at 0.5 to 1 uM treated for 48 hrs by fluorescence microscopy; set-up: species or system Danio rerio; conditions: in vivo, dose 0.5-1 µM
BEAS-2B [16] = experiment: Induction of apoptosis in human BEAS-2B cells assessed as morphological change in nucleus at 50 to 400 nM incubated for 24 hrs by DAPI staining based analysis; assay type: toxicity, cell-based; conditions: 0.4 µM, dose 50-400 nM
NCI-H1975 [17] = experiment: Cytotoxicity against human NCI-H1975 cells assessed as inhibition of cell viability incubated for 48 hrs by MTT assay; assay type: functional, cell-based; conditions: NCI-H1975, 48 h
[18] = Drug accumulation in mitochondria of human NCI-H1975 cells at 600 nM incubated for 5 hrs by Red CMXRos probe based analysis; assay type: ADME; conditions: nci-h1975, 5 h, 0.6 µM
BEAS-2B [19] = experiment: Inhibition of mitochondrial membrane potential in human BEAS-2B cells at 200 nM incubated for 24 hrs by JC-1 staining based flow cytometry; assay type: toxicity, cell-based; conditions: 0.2 µM
[20] = Toxicity in zebrafish embryo assessed as degree of periocular edema at 4 uM pretreated with compound followed by replacement of growth liquid by microscopy (reference value: 0.00 %); set-up: species or system Danio rerio; conditions: in vivo, 24 h
[21] = Teratogenic toxicity in zebrafish AB zygotes at 2 to 4 uM treated at 6 hrs post-fertilization measured at 24 to 72 hrs post-fertilization; set-up: species or system Danio rerio; conditions: in vivo, dose lower 2 µM, time lower 18 hrs, dose upper 4 µM, time upper 66 hrs
[22] = Toxicity in zebrafish embryo assessed as liver function at 1 uM with replacement of new growth solution daily by fluorescence microscopy (reference value: 100 +/- 8.89 %); assay type: tissue-based, Danio rerio; conditions: in vivo
[23] = Renal toxicity in zebrafish assessed as increase in Kim1 expression at 0.5 to 2 uM treated for 48 hrs by RT-qPCR analysis; set-up: species or system Danio rerio; conditions: in vivo, dose 0.5-2 µM
[24] = Teratogenic toxicity in zebrafish AB zygotes at 0.5 to 2 uM treated at 6 hrs post-fertilization measured at 24 to 72 hrs post-fertilization; set-up: species or system Danio rerio; conditions: in vivo, dose lower 0.5 µM, time lower 18 hrs, dose upper 2 µM, time upper 66 hrs
NCI-H1975 [25] = experiment: Cytotoxicity against human NCI-H1975 cells assessed as cell growth inhibition at >41.15 nM incubated for 48 hrs by MTT assay relative to control; assay type: functional
[26] = Developmental toxicity in zebrafish AB zygotes assessed as decrease in hatching rate at 1 to 4 uM treated at 6 hrs post-fertilization measured at 24 to 72 hrs post-fertilization; set-up: species or system Danio rerio; conditions: in vivo, dose lower 1 µM, time lower 18 hrs, dose upper 4 µM, time upper 66 hrs
[27] = Renal toxicity in zebrafish assessed as FITC dye residue at 0.25 to 1 uM treated for 24 hrs followed by dye treatment measured after 6 hrs by fluorescence microscopy; set-up: species or system Danio rerio; conditions: in vivo, 30 h, dose 0.25-1 µM
Danio rerio [28] = species on record: Danio rerio; experiment: Induction of ROS production in zebrafish at 1 to 2 uM measured after 48 hrs by fluorescence microscopy; assay type: functional, organism-based; conditions: dose 1-2 µM
[29] = Toxicity in zebrafish xenografted with human NCI-H1975 cells assessed as body deformity at 1 uM; set-up: species or system Danio rerio
MCF7 [30] = experiment: Cytotoxicity against human MCF7 cells assessed as cell growth inhibition incubated for 48 hrs by MTT assay; assay type: functional, cell-based
[31] = Developmental toxicity in zebrafish AB zygotes assessed as lethal effect at 2 to 4 uM treated at 6 hrs post-fertilization measured at 72 hrs post-fertilization; set-up: species or system Danio rerio; conditions: in vivo, 66 h, dose 2-4 µM
MCF7 [32] = experiment: Cytotoxicity against human MCF7 cells assessed as cell growth inhibition at 4.5 to 10 nM incubated for 48 hrs by MTT assay relative to control; assay type: functional; conditions: dose 4.5-10 nM
HepG2 = experiment: Cytotoxicity against human HepG2 cells assessed as cell growth inhibition incubated for 48 hrs by MTT assay; assay type: functional, cell-based; conditions: dose 4.5-10 nM
NCI-H1975 [33] = experiment: Cytotoxicity against human NCI-H1975 cells assessed as cell growth inhibition incubated for 48 hrs by MTT assay; assay type: functional, cell-based
[34] = Renal toxicity in zebrafish assessed as yolk sac absorption at 2 uM treated at 3 hrs post-fertilization measured at 48 hrs post-compound treatment by FITC staining based microscopy; set-up: species or system Danio rerio; conditions: in vivo
A549 = experiment: Cytotoxicity against human A549 cells assessed as cell growth inhibition incubated for 48 hrs by MTT assay; assay type: functional, cell-based
NCI-H460 [35] = experiment: Cytotoxicity against human NCI-H460 cells assessed as cell growth inhibition at 4.5 to 10 nM incubated for 48 hrs by MTT assay relative to control; assay type: functional; conditions: dose 4.5-10 nM
NCI-H1975 [36] = experiment: Induction of apoptosis in human NCI-H1975 cells at 50 to 1600 nM incubated for 24 hrs by Annexin V-FITC/PI staining based flow cytometry; assay type: functional, cell-based; conditions: dose 50-1600 nM
[37] = Toxicity in zebrafish xenografted with human NCI-H1975 cells assessed as animal death at 2 uM; set-up: species or system Danio rerio

CC(C)[C@]12O[C@H]1[C@@H]1O[C@]13[C@]1(O[C@H]1C[C@H]1C4=C(CC[C@@]13C)C(=O)OC4)[C@@H]2OC(=O)CCCCCCCC[n+]1ccc(/C=C/c2c[nH]c3ccccc23)cc1.[Br-]
Activity [1]: 23.76% | IC50 at 48 h [2]: 19.2 µM | IC50 (NCI-H460 [3]): 4.78 µM | Activity (Danio rerio [4]): Active | Activity [5]: 72.82% | Activity [6]: Toxic | inhibition (NCI-H1975 [7]): Active | Activity [8]: 58.21% | Activity (NCI-H1975 [9]): Active | Activity (BEAS-2B [10]): Non-Toxic | Activity [11]: 41.79% | Activity [12]: Toxic | inhibition (NCI-H1975 [13]): Active | Activity [14]: Dose-Dependent Effect | Activity [15]: Non-Toxic | Activity (BEAS-2B [16]): Non-Toxic | IC50 (NCI-H1975 [17]): 0.21 µM | Drug uptake [18]: Active | Activity (BEAS-2B [19]): Non-Toxic | Activity [20]: 100% | Activity [21]: Toxic | Activity [22]: 27.18%

CC(C)[C@]12O[C@H]1[C@@H]1O[C@@]13[C@@]1(C)CCC4=C(COC4=O)[C@@H]1C[C@@H]1O[C@@]13C2=O [TRIPTONIDE]
Activity [23]: Toxic | Activity [24]: Toxic | inhibition (INH) (NCI-H1975 [25]): <50% | Activity [26]: Toxic | Activity [27]: Toxic | Activity (Danio rerio [28]): Active | Activity [29]: Toxic | inhibition (MCF7 [30]): Dose-Dependent Effect | Activity [31]: Toxic | Imax (MCF7 [32]): ~40% | inhibition (HepG2): Active | inhibition (NCI-H1975 [33]): Dose-Dependent Effect | Activity [34]: Toxic | inhibition (A549): Dose-Dependent Effect | Imax (NCI-H460 [35]): ~40% | Activity (NCI-H1975 [36]): Active | Activity [37]: Toxic

From ChEMBL document CHEMBL5537157, “Selective Antitumor Effect and Lower Toxicity of Mitochondrion-Targeting Derivatization of Triptolide” (J Med Chem, 2024)
